Source: patent US7541359B2, “N-heteroarylpiperazinyl ureas as modulators of fatty acid amide hydrolase” (Janssen Pharmaceutica N.V., priority 2005, dated 2009)

molecular target: T1, Rat FAAH (Rattus norvegicus, UniProt P97612); test: Assay Method 3: FAAH assay, homogenate of SK-N-MC cells transfected with rat FAAH; type: biochemical; conditions: rat FAAH transfected SK-N-MC cell homogenate; 3H-AEA tracer 80 nM; rt 1 h
T1 construct: expressed in transfected cells; host or cells: SK-N-MC cells, electroporated, G418-selected clones
T1 sequence (P97612 1-579): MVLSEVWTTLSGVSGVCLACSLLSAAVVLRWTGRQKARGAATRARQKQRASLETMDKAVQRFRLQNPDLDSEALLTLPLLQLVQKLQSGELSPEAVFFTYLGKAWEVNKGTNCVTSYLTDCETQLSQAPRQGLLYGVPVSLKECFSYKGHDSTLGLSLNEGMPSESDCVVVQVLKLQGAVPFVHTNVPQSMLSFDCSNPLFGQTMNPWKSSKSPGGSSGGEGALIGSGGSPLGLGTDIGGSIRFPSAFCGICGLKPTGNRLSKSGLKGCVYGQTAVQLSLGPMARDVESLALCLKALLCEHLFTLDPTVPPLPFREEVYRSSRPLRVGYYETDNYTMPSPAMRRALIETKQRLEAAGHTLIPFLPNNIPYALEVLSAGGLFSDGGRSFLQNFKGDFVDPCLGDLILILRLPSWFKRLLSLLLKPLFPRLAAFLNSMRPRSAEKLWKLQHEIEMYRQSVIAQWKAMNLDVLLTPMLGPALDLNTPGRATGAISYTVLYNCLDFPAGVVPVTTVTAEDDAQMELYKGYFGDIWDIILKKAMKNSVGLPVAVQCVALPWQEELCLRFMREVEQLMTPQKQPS
Description: Assay Method 3 A. Transfection of Cells with Rat FAAH
A 10-cm tissue culture dish with a confluent monolayer of SK-N-MC cells was split 2 days (d) prior to transfection. Using sterile technique, the media was removed and the cells were detached from the dish by the addition of trypsin. One fifth of the cells were then placed onto a new 10-cm dish. Cells were grown in a 37° C. incubator with 5% CO2 in Minimal Essential Media Eagle with 10% Fetal Bovine Serum. After 2 d, cells were approximately 80% confluent. These cells were removed from the dish with trypsin and pelleted in a clinical centrifuge. The pellet was re-suspended in 400 μL complete media and transferred to an electroporation cuvette with a 0.4 cm gap between the electrodes. Supercoiled rat FMH cDNA (1 μg) was added to the cells and mixed. The voltage for the electroporation was set at 0.25 kV, and the capacitance was set at 960 μF. After electroporation, the cells were diluted into complete media (10 mL) and plated onto four 10-cm dishes. Because of the variability in the efficiency of electroporation, four different concentrations of cells were plated. […] After 10 d, dishes were analyzed for surviving colonies of cells. Dishes with well-isolated colonies were used. Cells from individual colonies were isolated and tested.
The assay mixture consisted of 50 μL of the cell homogenate, 10 μL of the test compound, and 40 μL of anandamide [1-^3H-ethanolamine] (^3H-AEA, Perkin-Elmer, 10.3 Ci/mmol), which was added last, for a final tracer concentration of 80 nM. The reaction mixture was incubated at rt for 1 h. During the incubation, 96-well Multiscreen filter plates (catalog number MAFCNOB50: Millipore, Bedford, Mass., USA) were loaded with 25 μL of activated charcoal (Multiscreen column loader, catalog number MACL09625, Millipore) and washed once with 100 μL of MeOH. […] After the 1 h incubation, 60 μL of the reaction mixture were transferred to the charcoal plates, which were then assembled on top of the DYNEX plates using Centrifuge Alignment Frames (catalog number MACF09604, Millipore). The unbound labeled ethanolamine was centrifuged through to the bottom plate (5 min at 2000 rpm), which was preloaded with the scintillant, as described above. The plates were sealed and left at rt for 1 h before counting on a Hewlett Packard TopCount.

Cc1ccc(-c2nsc(N3CCN(C(=O)Nc4ccccc4)CC3)n2)cc1 [Example 18, 4-(3-p-Tolyl-[1,2,4]thiadiazol-5-yl)-piperazine-1-carboxylic acid phenylamide] and O=C(Nc1ccccc1)N1CCN(c2nc(-c3ccc(Cl)cc3)ns2)CC1 [Example 20, 4-[3-(4-Chloro-phenyl)-[1,2,4]thiadiazol-5-yl]-piperazine-1-carboxylic acid phenylamide] are within 1.5-fold of each other in IC50: 250 nM for the first, 350 nM for the second.

Compared with COc1ccc(-c2nsc(N3CCN(C(=O)Nc4ccccc4)CC3)n2)cc1 [Example 19, 4-[3-(4-Methoxy-phenyl)-[1,2,4]thiadiazol-5-yl]-piperazine-1-carboxylic acid phenylamide], COC(=O)c1ccc(NC(=O)N2CCN(c3nc(-c4ccccc4)ns3)CC2)cc1 [Example 30, 4-{[4-(3-Phenyl-[1,2,4]thiadiazol-5-yl)-piperazine-1-carbonyl]-amino}-benzoic acid methyl ester] is higher in IC50: 490 nM for the first, over 10000 nM for the second. The first is the more potent here.

Compared with O=C(Nc1ccccc1F)N1CCN(c2nc(-c3ccccc3)ns2)CC1 [Example 21, 4-(3-Phenyl-[1,2,4]thiadiazol-5-yl)-piperazine-1-carboxylic acid (2-fluoro-phenyl)-amide], CC(C)c1ccccc1NC(=O)N1CCN(c2nc(-c3ccccc3)ns2)CC1 [Example 23, 4-(3-Phenyl-[1,2,4]thiadiazol-5-yl)-piperazine-1-carboxylic acid (2-isopropyl-phenyl)-amide] is higher in IC50: 6 nM for the first, over 10000 nM for the second. The first is the more potent here.

CN(C)c1ccc(NC(=O)N2CCN(c3nc(-c4ccccc4)ns3)CC2)cc1 [Example 26, 4-(3-Phenyl-[1,2,4]thiadiazol-5-yl)-piperazine-1-carboxylic acid (4-dimethylamino-phenyl)-amide] and O=C(Nc1ccccc1)N1CCN(c2nc(-c3cccc([N+](=O)[O-])c3)ns2)CC1 [Example 37, 4-[3-(3-Nitro-phenyl)-[1,2,4]thiadiazol-5-yl]-piperazine-1-carboxylic acid phenylamide] cannot be ordered by IC50: over 10000 nM for the first, over 10000 nM for the second.
